From patent US9732070B2, “Protein kinase C inhibitors and uses thereof” (Rigel Pharmaceuticals, Inc., priority 2009, dated 2017)

System: Human primary T cells
Experiment: IL-2 ELISA, human primary T cell, anti-CD3+CD28 stimulation
Assay type: cell-based
Conditions: T-cell; IL-2 quantified by ELISA; human primary T cells stimulated with αCD3 and αCD28, 24 hours
Outline: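 PBMC-derived T cells expanded on αCD3/αCD28 with IL-2, then washed free of IL-2. Cells (100,000/well) pre-incubated with compound 1 h at 37° C, stimulated on plates coated with 1 μg/ml αCD3 and 5 μg/ml αCD28 (counter assay: 0.5 ng/ml PMA plus 0.1 uM ionomycin) for 24 h; supernatant IL-2 by ELISA.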

Compound `CN1C(C)(C)CC(Nc2nc(Nc3ccc(F)c(-n4nnn(C)c4=O)c3F)ncc2F)CC1(C)C` [I-66, N2-(2,4-difluoro-3-(4-methyl-4,5-dihydro-5-oxo-1H-tetrazol-1-yl)phenyl)-5-fluoro-N4-(1,2,2,6,6-pentamethylpiperidin-4-yl)pyrimidine-2,4-diamine] has an IC50 of 3000 to 25000 nM.
In the case of `Cn1nnn(-c2cc(Nc3ncc(F)c(NC4CC(C)(C)NC(C)(C)C4)n3)c(F)cc2Cl)c1=O` [I-68], the IC50 is reported as < 500 nM.
